We go through one molecule from patent publication US9394328B2, “Crystalline dapagliflozin hydrate” (SANDOZ AG, priority 2011, dated 2016).

How the values of this data set were obtained:
The measurements were carried out with a Bruker D8 Advance powder X-ray diffractometer using Cu Kα radiation in the Bragg-Brentano reflection geometry. Generally, the 2θ values are accurate within an error of ±0.1-0.2°. The relative peak intensities can vary considerably for different samples of the same crystalline form because of different preferred orientations of the crystals. The samples were prepared without any special treatment other than the application of slight pressure to get a flat surface. Silicon single crystal sample holders of either 0.5 mm or 0.1 mm depth and 12 mm cavity diameter were used. The tube voltage and current were 40 kV and 40 mA, respectively. The X-ray diffractometer is equipped with a LynxEye detector. A variable divergence slight was used with a 3° window. The step size was 0.02° 20 with a step time of 37 seconds. The samples were rotated at 0.5 rps during the measurement.
Thermogravimetry coupled with Fourier Transform Infrared Spectroscopy (TG-FTIR): TG-FTIR was performed on a Netzsch Thermo-Microbalance TG 209, which is coupled to a Bruker FT-IR Spectrometer Vector 22. The measurements were carried out with aluminum crucibles with a micro pinhole under a nitrogen atmosphere and at a heating rate of 10° C./min over the range 25-250° C.
145 mg of crystalline hydrate form A according to example 4 is stored under a relative humidity of 60% (in an open container) for two weeks. Then the stored sample is investigated by PXRD and TG-FTIR.

For `CCOc1ccc(Cc2cc([C@@H]3O[C@H](CO)[C@@H](O)[C@H](O)[C@H]3O)ccc2Cl)cc1` [form A, dapagliflozin], the “TG-FTIR mass loss attributable to loss of water” value (after storage at relative humidity of 60% for two weeks) was “about 9%”. Besides, for the setting “concluded from TG-FTIR mass loss”, the “Water content in equilibrium with a water activity of about 0.6” value is reported as “about 2 mol water per mol dapagliflozin”. Where the note is “stored under a relative humidity of 60% (open container) for two weeks”, the “Crystalline form after storage (PXRD)” value is reported as “form A is retained”.
